From ChEMBL document CHEMBL1133998, “Studies directed towards the refinement of the pancratistatin cytotoxic pharmacophore” (2001)
≈ marks a conversion by molar mass, not a printed value.

Experiments:
Format in all cases: functional
P388 = assay: Effective dose against the p-388 mouse leukemia cell line; settings: read-out: ED50 (the source's name)
CCRF-CEM = assay: Effective dose for inhibition of proliferation of the leukemia cell line CCRF-CEM; settings: Homo sapiens, read-out: ED50 (the source's name)
NCI-H226 = assay: Effective dose for inhibition of proliferation of the lung cancer cell line NCI-H226; settings: Homo sapiens, read-out: ED50 (the source's name)
HL-60 = assay: Effective dose for inhibition of proliferation of the leukemia cell line HL-60(TB); settings: Homo sapiens, read-out: ED50 (the source's name)

| SMILES | EC50 (P388) | EC50 (CCRF-CEM) | EC50 (NCI-H226) | EC50 (HL-60) |
| --- | --- | --- | --- | --- |
| O=C1N[C@H]2[C@H](O)CCC[C@@H]2c2cc3c(cc21)OCO3 | 40.1 µg/mL (≈ 153 µM) |  |  |  |
| O=C1N[C@H]2C[C@H](O)[C@@H](O)C[C@@H]2c2cc3c(cc21)OCO3 | 0.45 µg/mL (≈ 1.62 µM) | 0.55 µg/mL (≈ 1.98 µM) | 0.65 µg/mL (≈ 2.34 µM) | 0.89 µg/mL (≈ 3.21 µM) |
